In general, melting point refers to the temperature, or range, at which the solid turns liquid. Broadly, the IC50 is the concentration that inhibits the measured activity by half. The low end stands for greater potency, the high end for weaker potency. The inhibition is the drop in the measured response relative to a control, in per cent.

The record followed here is US8058442B2 (Technion Research and Development Foundation Ltd., priority 2002, dated 2011).

Where a name gives a salt, the structure may show the parent alone.

One data set addresses T1, rat brain MAO-B (Rattus norvegicus, UniProt P19643).
T1 construct: from tissue; host or cells: rat brain homogenate, 4500 g pellet
T1 sequence (P19643 1-520): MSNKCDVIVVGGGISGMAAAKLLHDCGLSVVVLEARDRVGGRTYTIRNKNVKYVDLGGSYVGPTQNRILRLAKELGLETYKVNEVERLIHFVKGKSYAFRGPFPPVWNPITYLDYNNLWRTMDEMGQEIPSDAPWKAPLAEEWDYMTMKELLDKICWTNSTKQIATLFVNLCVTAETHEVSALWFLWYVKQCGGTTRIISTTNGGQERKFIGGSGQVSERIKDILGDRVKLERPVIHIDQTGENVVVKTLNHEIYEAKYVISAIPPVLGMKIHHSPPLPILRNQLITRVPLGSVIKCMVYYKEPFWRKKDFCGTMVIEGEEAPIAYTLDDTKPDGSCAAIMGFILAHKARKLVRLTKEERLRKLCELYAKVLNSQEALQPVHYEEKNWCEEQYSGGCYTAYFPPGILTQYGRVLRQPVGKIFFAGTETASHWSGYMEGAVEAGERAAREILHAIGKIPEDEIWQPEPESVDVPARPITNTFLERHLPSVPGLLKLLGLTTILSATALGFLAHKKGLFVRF
The data set is described as follows: In vitro inhibition of rat brain MAO-B. The format is biochemical. The settings on record: for IC50: rat brain homogenate; for inhibition at 100 µM: read-out: inhibition of MAO-B. On the procedure: (§1) Rats were decapitated and the brains were quickly taken into a weighted ice-cold sucrose buffer (0.32 M), and their weights were determined. All subsequent procedures were performed at 0-4° C. The brains were homogenized in 0.25 M sucrose (one part tissue to 20 parts sucrose) in a Teflon glass homogenizer followed by the addition of sucrose buffer to a final concentration of 10% homogenate. The homogenates were centrifuged at 600 g for 15 min. The supernatant fraction was taken out and centrifuged at 4500 g for 30 min, the pellet was diluted in 0.32 M sucrose buffer and kept frozen for later assaying of MAO. Protein concentration was determined with Bradford reagent at 595 nm, using bovine serum albumin as a standard.
(§2) The test compound was added to a suitable dilution of the enzyme preparation (70 μg protein for MAO-B and 150 μg MAO-A assay) in 0.05 M phosphate buffer (pH 7.4). The mixture was incubated together with […], a specific inhibitor of MAO-B (for determination of MAO-A) or […] clorgylin, a specific inhibitor of MAO-A (for determination of MAO-B). Incubation was carried for 1 h at 37° C. before addition of ^14C-5-hydroxytryptamine binoxalate ([…]) for determination of MAO-A, or ^14C-phenylethylamine 100 µM for determination of MAO-B, and incubation continued for 30 min or 20 min, respectively. The reaction was stopped with 2 M ice-cold citric acid, and the metabolites were extracted and determined by liquid-scintillation counting in cpm units.
(§3) MAO-A and MAO-B activities were determined in rat brain homogenate in vitro following incubation with varying concentrations of the test compounds.
MAO-B activity in presence of the test compound was expressed as a percentage of that in control samples.

The target in the next data set is T2, rat brain MAO-A (Rattus norvegicus, UniProt P21396).
T2 construct: from tissue; host or cells: rat brain homogenate, 4500 g pellet
T2 sequence (P21396 1-526): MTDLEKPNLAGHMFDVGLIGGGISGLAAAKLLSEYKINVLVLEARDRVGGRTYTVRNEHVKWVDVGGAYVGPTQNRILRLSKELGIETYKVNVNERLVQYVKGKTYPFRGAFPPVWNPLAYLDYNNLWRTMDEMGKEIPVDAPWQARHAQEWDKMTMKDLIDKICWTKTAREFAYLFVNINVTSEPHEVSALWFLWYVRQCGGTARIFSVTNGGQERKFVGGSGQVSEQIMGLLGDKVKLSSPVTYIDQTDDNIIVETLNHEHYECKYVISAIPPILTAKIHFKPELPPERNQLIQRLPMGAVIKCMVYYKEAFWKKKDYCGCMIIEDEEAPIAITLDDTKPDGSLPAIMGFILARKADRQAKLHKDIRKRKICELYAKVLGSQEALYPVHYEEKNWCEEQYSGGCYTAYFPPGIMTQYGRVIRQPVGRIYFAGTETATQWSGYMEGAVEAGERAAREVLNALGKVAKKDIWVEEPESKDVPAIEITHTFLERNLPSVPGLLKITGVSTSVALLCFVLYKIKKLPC
The data set is described as follows: In vitro inhibition of rat brain MAO-A. Type of data set: biochemical. The settings on record: rat brain homogenate. As for the experimental part:
as §1, §2, §3
In another experiment, the in vitro inhibitory activity of HLA20, M32, VK-28, M30, M31, and propargylamine (P) was tested against rat brain MAO-A. The test compounds were added to buffer containing 10^−7M deprenyl and were incubated with the tissue homogenate for 60 min at 37° C. before addition of ^14C-5-hydroxytryptamine. MAO-A activity in presence of the test compound was expressed as a percentage of that in control samples.

For a further data set, the system named is PC12 cells. In words: Neuroprotection of PC12 cells against serum-deprivation induced apoptosis (MTT test). The format is cell-based, rat. As for the experimental part:
Rat PC12 cells, originated from rat pheochromocytoma, were grown at 37° C., in a humid 5% CO2, 95% air environment, in a growth medium containing Dulbecco's modified Eagle's Medium (DMEM, GIBCO, BRL) supplemented with glucose (1 mg/1 ml), 5% fetal calf serum, 10% horse serum, and 1% of a mixture of streptomycin/penicillin. On confluence, the culture was removed and the cells were detached by vigorous washing, centrifuged at 200 g for 5 min and resuspended in DMEM with full serum content. 0.5×10^4 cells/well were placed in microtiter plates (96 wells) precoated with collagen (10 μg/cm^2 were allowed to attach for 24 h before treatment).
Twenty-four hours after attachment of the PC12 cells as described in (g), the medium was replaced with DMEM containing 0.1% BSA. The test compounds were added to the cells after 1 h of incubation. After 24 h incubation, the cells were subjected to MTT test as previously described (Gassen et al., 1998). The absorption was determined in a Perkin-Elmer Dual Wavelength Eliza-Reader at λ=570/650 nm after automatic subtraction of background readings. The results are expressed as percentage of the untreated control.
PC12 cells were grown in serum-free medium alone or in serum-free medium with different concentration of the chelators VK-28, M32, HLA20 and Rasagiline. After 24 h incubation, the cells were subjected to MTT test.
Cell viability was expressed as a percentage of cells cultured in medium supplemented with serum, which served as the control group and was designated as 100%. […] Experimental data are shown as mean±SD (r=6).
(In general: Tetrazolium dyes change colour on reduction, which living cells bring about.)

Consider `NC(Cc1ccc(O)c2ncccc12)C(=O)O` (racemic) (as salt: salt) [HLM8, DL-3-(8-hydroxyquinolin-5-yl)alanine], for which the melting point was 194 °C (dec.).
Consider `C#CCN(C)Cc1ccc(O)c2ncccc12` [Compound M30], for which the IC50 on rat brain MAO-B and against rat brain MAO-A was below 0.1 µM each time.
As to `C#CCNC(Cc1ccc(O)c2ncccc12)C(=O)OCC` (stereo not drawn) [Compound M31], the inhibition at 100 µM on rat brain MAO-B is 14.2%. For the same molecule, the “effect on MAO-A” value on rat brain MAO-A is given as “almost no effect”.
As to `CCOC(=O)C(CS)NCc1ccc(O)c2ncccc12` (stereo not drawn) [Compound M32], at rat brain MAO-B, the inhibition at 100 µM is 17.2%. The “number of survival cells (cell viability, % of cells cultured with serum)” value with PC12 cells (0.1 μM chelator, serum-free medium, 24 h, serum-free control 38%) turned out to be 59%. Moreover, the “change in the protection against PC12 cell death induced by serum withdrawal” value in the data set on PC12 cells (1 or 10 μM, compared with 0.1 μM) is reported as “no significant change in the protection”. Besides, the “effect on MAO-A” value on rat brain MAO-A is listed as “almost no effect”.
`CCOC(=O)C(C)(NC(=O)Cc1ccc(O)c2ncccc12)C(=O)OCC` [HLM7, diethyl 8-hydroxyquinolin-5-yl-methyl-acetamidomalonate]: the melting point fell in the range of 153 to 154 °C.
Take `C#CCN` [Propargylamine, propargylamine, reference compound]: the figures for the IC50 against rat brain MAO-B and at rat brain MAO-A were 10.1 µM and 66.3 µM, respectively.
